Reference: patent US9944666B2, “Compounds that are S1P modulating agents and/or ATX modulating agents” (BIOGEN MA INC., priority 2012, dated 2018)

Target: T1, Human ATX protein (Homo sapiens, UniProt Q13822)
T1 construct: made in house
Experiment: ATX biochemical FRET assay with FS-3 substrate
Conditions: FS-3 2 μM, ATX 1.0 μg/mL, room temperature 2 hours, fluorescence 485/538 nm
Text: ATX (Autotaxin) is a 125 KDa glycoprotein with lysophospholipase D (LPLD) activity that generates the bioactive lipid lysophosphatidic acid (LPA) from lysophosphatidylcholine (LPC). The ATX biochemical assay utilizes a FRET (fluorescence resonance energy transfer) technology platform. The fluorescence signal of FRET substrate FS-3 is quenched due to intra-molecular FRET of a fluorophore to a non-fluorescing quencher (Ferguson, C. G., et al., Org Lett. 2006 May 11; 8(10): 2023-2026, which is incorporated by reference in its entirety). ATX catalyzes the hydrolysis of the substrate which separates the dabsyl quencher from the fluorescein reporter, which becomes fluorescent. The reaction is monitored by a SpectraMax M5 (Molecular Devices, Sunnyvale, Calif.) with at excitation wavelength 485 nm and emission wavelength […].
Fatty acid free-BSA (Sigma A8806): 10 mg/ml, in H2O, stored at 4° C.
2×ATX assay buffer: 100 mM Tris, 280 mM NaCl, 10 mM KCl, 2 mM CaCl2, 2 mM MgCl2, pH 7.4.
Human ATX protein: expressed and purified in house. Stored at −80° C.
Substrate FS-3 (Echelon, L-2000): 100 μg in 77.74 μL H2O (1 mM stock), stored at −20° C.
384-well flat bottom plates—Corning #3575.
Compound dilution—All compounds were provided at 10 mM in 100% DMSO. In the first well, 2 μL of 10 mM compound was added to 78 μL of DMSO (1:40 dilution). In subsequent wells 3-fold dilution (total 10 dilutions) were performed.
1×ATX assay buffer was made up with a final concentration of 1 mg/mL fatty acid free-BSA using 2×ATX assay buffer, 10 mg/ml fatty acid free-BSA and ddH2O.
ATX protein was diluted with 1×ATX assay buffer to a concentration of 1.32 μg/mL (1.32×). 38 μL was added per well to the assay plate. The final concentration of ATX in the reaction as 1.0 μg/mL.
2 μL per well of compounds was transferred to provide the desired concentration. The plate was centrifuged, then incubated at room temperature for 30 minutes on the shaker.
FS-3 was diluted with 1×ATX assay buffer to a concentration of FS-3 of 10 μM (5×). Then, 10 μL was added per well to the assay plate. The final concentration of FS-3 in the reaction was 2 μM. The plate was centrifuged. The plate was kept shaking at room temperature for 2 hours. Because FS-3 substrate is light sensitive, plates were kept covered and protected from light.
Fluorescence was measured using SpectraMax M5 (excitation at 485 nm/emission at 538 nm, top read).

Row | Structure (SMILES) | IC50 [µM]
1 | O=C(O)C1CC2CCC(C1)N2C(=O)Cc1ccc2c(C(F)(F)F)c(O[C@H]3CC[C@@H](C(F)(F)F)CC3)ccc2c1 (relative stereo) [Example 117, 2-(2-(5-(trifluoromethyl)-6-((cis-4-(trifluoromethyl)cyclohexyl)oxy)naphthalene-2-yl)acetyl)-2-azabicyclo[1.2.3]octane-7-carboxylic acid] | ≤ 0.5
2 | CC(c1ccc2c(C(F)(F)F)c(O[C@H]3CC[C@@H](C(F)(F)F)CC3)ccc2c1)N1C2CCC1CC(C(=O)O)C2 (relative stereo) [Example 122, 8-(1-(5-(trifluoromethyl)-6-((cis-4-(trifluoromethyl)cyclohexyl)oxy)-naphthalene-2-yl)ethyl)-8-azabicyclo[3.2.1]octane-3-carboxylic acid] | ≤ 0.1
3 | CC1(C)C2CCC1(C(=O)O)C(NCc1ccc3c(C(F)(F)F)c(O[C@H]4CC[C@@H](C(F)(F)F)CC4)ccc3c1)C2 (relative stereo) [Example 123, 3-(((5-(trifluoromethyl)-6-((cis-4-(trifluoromethyl)cyclohexyl)oxy)naphthalen-2-yl)methyl)amino)-7,7-dimethylbicyclo[2.2.1]heptane-4-carboxylic acid] | ≤ 0.5
4 | CC(c1ccc2c(C(F)(F)F)c(O[C@H]3CC[C@@H](C)CC3)ccc2c1)N1C2CCC1CC(C(=O)O)C2 (relative stereo) [Example 124, 8-(1-(6-((cis-4-Methylcyclohexyl)oxy)-5-(trifluoromethyl)naphthalen-2-yl)ethyl)-8-azabicyclo[3.2.1]octane-3-carboxylic acid] | ≤ 0.1
5 | C[C@H]1CC[C@@H](Oc2ccc3cc(C(=O)N4C5CCCC4CC(C(=O)O)C5)ccc3c2C(F)(F)F)CC1 (relative stereo) [Example 125, 9-(6-((cis-4-Methylcyclohexyl)oxy)-5-(trifluoromethyl)-2-naphthoyl)-9-azabicyclo[3.3.1]nonane-3-carboxylic acid] | ≤ 0.25
6 | C[C@H]1CC[C@@H](Oc2ccc3cc(CN4C5COCC4CC(C(=O)O)C5)ccc3c2C(F)(F)F)CC1 (relative stereo) [Example 126, 9-((6-((cis-4-Methylcyclohexyl)oxy)-5-(trifluoromethyl)naphthalen-2-yl)methyl)-9-aza-7-oxa-bicyclo[3.3.1]nonane-3-carboxylic acid] | ≤ 0.25
7 | CCC(c1ccc2c(C(F)(F)F)c(O[C@H]3CC[C@@H](C)CC3)ccc2c1)N1C2CCC1CC(C(=O)O)C2 (relative stereo) [Example 127, 8-(1-(6-((cis-4-Methylcyclohexyl)oxy)-5-(trifluoromethyl)naphthalen-2-yl)propyl)-8-azabicyclo[3.2.1]octane-3-carboxylic acid] | ≤ 0.1
8 | CCC(c1ccc2c(C(F)(F)F)c(O[C@H]3CC[C@@H](C)CC3)ccc2c1)N1C2CCCC1CC(C(=O)O)C2 (relative stereo) [Example 128, 9-(1-(6-((cis-4-Methylcyclohexyl)oxy)-5-(trifluoromethyl)naphthalen-2-yl)propyl)-9-azabicyclo[3.3.1]nonane-3-carboxylic acid] | ≤ 0.1
9 | C[C@H]1CC[C@@H](Oc2ccc3cc(CN4C5CC(O)CC4CC(C(=O)O)C5)ccc3c2C(F)(F)F)CC1 (relative stereo) [Example 129, 9-((6-((cis-4-Methylcyclohexyl)oxy)-5-(trifluoromethyl)naphthalen-2-yl)methyl)-7-hydroxy-9-aza-bicyclo[3.3.1]nonane-3-carboxylic acid] | ≤ 0.5
10 | CC(c1ccc2c(C(F)F)c(O[C@H]3CC[C@@H](C)CC3)ccc2c1)N1C2CCCC1CC(C(=O)O)C2 (relative stereo) [Example 132, 9-(1-(5-(difluoromethyl)-6-((cis-4-methylcyclohexyl)oxy)naphthalen-2-yl)ethyl)-9-azabicyclo[3.3.1]nonane-3-carboxylic acid] | ≤ 0.1
11 | CC(c1ccc2c(C(F)F)c(O[C@H]3CC[C@@H](C)CC3)ccc2c1)N1C2CCC1CC(C(=O)O)C2 (relative stereo) [Example 133, 8-(1-(5-(difluoromethyl)-6-((cis-4-methylcyclohexyl)oxy)naphthalen-2-yl)ethyl)-8-azabicyclo[3.2.1]octane-3-carboxylic acid] | ≤ 0.1
12 | C[C@H]1CC[C@@H](Oc2ccc3cc(CN4C5CCC4CC(C(=O)O)C5)ccc3c2C(F)F)CC1 (relative stereo) [Example 134, 8-(1-(5-(difluoromethyl)-6-((cis-4-methylcyclohexyl)oxy)naphthalen-2-yl)methyl)-8-azabicyclo[3.2.1]octane-3-carboxylic acid] | ≤ 0.1
13 | CCC(c1ccc2c(C(F)F)c(O[C@H]3CC[C@@H](C)CC3)ccc2c1)N1C2CCCC1CC(C(=O)O)C2 (relative stereo) [Example 135, 9-(1-(5-(difluoromethyl)-6-((cis-4-methylcyclohexyl)oxy)naphthalen-2-yl)propyl)-9-azabicyclo[3.3.1]nonane-3-carboxylic acid] | ≤ 0.1
14 | O=C(O)C1CC12CN(Cc1ccc3c(C(F)(F)F)c(O[C@H]4CC[C@@H](C(F)(F)F)CC4)ccc3c1)C2 (relative stereo) [Example 149, 2-((5-(trifluoromethyl)-6-((cis-4-(trifluoromethyl)cyclohexyl)oxy)naphthalen-2-yl)methyl)-2-azaspiro[3.2]hexane-5-carboxylic acid] | ≤ 0.25
15 | O=C(O)C1CCCC2CCN(Cc3ccc4c(C(F)(F)F)c(O[C@H]5CC[C@@H](C(F)(F)F)CC5)ccc4c3)CC21 (relative stereo) [Example 150, N-((5-(trifluoromethyl)-6-((cis-4-(trifluoromethyl)cyclohexyl)oxy)naphthalen-2-yl)methyl)-decahydroisoquinoline-8-carboxylic acid] | ≤ 0.25
16 | O=C(O)C1CCCC(C2CN(Cc3ccc4c(C(F)(F)F)c(O[C@H]5CC[C@@H](C(F)(F)F)CC5)ccc4c3)C2)C1 (relative stereo) [Example 159, N-(5-trifluoromethyl-6-(cis-4-trifluoromethyl-cyclohexyloxy)-naphthalen-2-ylmethyl)-3-(azetidine-3-yl)-cyclohexane-1-carboxylic acid] | ≤ 0.5
17 | O=C(O)C1CC2CCC1N2Cc1ccc2c(C(F)(F)F)c(O[C@H]3CC[C@@H](C(F)(F)F)CC3)ccc2c1 (relative stereo) [Example 165, 7-(5-trifluoromethyl-6-(cis-4-trifluoromethyl-cyclohexyloxy)-naphthalen-2-ylmethyl)-7-azabicyclo[2.2.1]heptane-2-carboxylic acid] | ≤ 0.25
18 | O=C(O)C1CC2CC(O)CC(C1)N2Cc1ccc2c(C(F)(F)F)c(O[C@H]3CC[C@@H](C(F)(F)F)CC3)ccc2c1 (relative stereo) [Example 169, 9-(5-trifluoromethyl-6-(cis-4-trifluoromethyl-cyclohexyloxy)-naphthalen-2-ylmethyl)-7-hydroxy-9-azabicyclo[3.3.1]nonane-3-carboxylic acid] | ≤ 0.5
19 | O=C1CC2CC(C(=O)O)CC(C1)N2Cc1ccc2c(C(F)(F)F)c(O[C@H]3CC[C@@H](C(F)(F)F)CC3)ccc2c1 (relative stereo) [Example 170, 9-(5-trifluoromethyl-6-(cis-4-trifluoromethyl-cyclohexyloxy)-naphthalen-2-ylmethyl)-7-oxo-9-azabicyclo[3.3.1]nonane-3-carboxylic acid] | ≤ 0.5
20 | CC[C@H]1CC[C@@H](Oc2ccc3cc(CN4C5CCCC4CC(C(=O)O)C5)ccc3c2C(F)(F)F)CC1 (relative stereo) [Example 171, 9-((6-((cis-4-ethylcyclohexyl)oxy)-5-(trifluoromethyl)naphthalen-2-yl)methyl)-9-azabicyclo[3.3.1]nonane-3-carboxylic acid] | ≤ 0.1
21 | CC[C@H]1CC[C@@H](Oc2ccc3cc(CN4C5CCC4CC(C(=O)O)C5)ccc3c2C(F)(F)F)CC1 (relative stereo) [Example 172, 8-((6-((cis-4-ethylcyclohexyl)oxy)-5-(trifluoromethyl)naphthalen-2-yl)methyl)-8-azabicyclo[3.2.1]octane-3-carboxylic acid] | ≤ 0.25
22 | CC[C@H]1CC[C@@H](Oc2ccc3cc(C(C)N4C5CCCC4CC(C(=O)O)C5)ccc3c2C(F)(F)F)CC1 (relative stereo) [Example 175, 9-(1-(6-((cis-4-ethylcyclohexyl)oxy)-5-(trifluoromethyl)naphthalen-2-yl)ethyl)-9-azabicyclo[3.3.1]nonane-3-carboxylic acid] | ≤ 0.1
